Measured values as given in ChEMBL document CHEMBL4251728, “Toll-like Receptors for the Treatment of Autoimmune, Inflammation, and Infectious Diseases” (ACS Med Chem Lett, 2018).
pIC50: −log10 of the molar value.

Each compound was assayed against T1, Toll-like receptor 7 (Homo sapiens, UniProt Q9NYK1) (assay: Antagonist activity at TLR7 in HEK cells assessed as decrease in R848-induced NF-kappaB activation incubated for 30 mins followed by R848 addition measured after 5 hrs by steady-Glo reagent based assay).
T1 sequence (Q9NYK1 whole entry): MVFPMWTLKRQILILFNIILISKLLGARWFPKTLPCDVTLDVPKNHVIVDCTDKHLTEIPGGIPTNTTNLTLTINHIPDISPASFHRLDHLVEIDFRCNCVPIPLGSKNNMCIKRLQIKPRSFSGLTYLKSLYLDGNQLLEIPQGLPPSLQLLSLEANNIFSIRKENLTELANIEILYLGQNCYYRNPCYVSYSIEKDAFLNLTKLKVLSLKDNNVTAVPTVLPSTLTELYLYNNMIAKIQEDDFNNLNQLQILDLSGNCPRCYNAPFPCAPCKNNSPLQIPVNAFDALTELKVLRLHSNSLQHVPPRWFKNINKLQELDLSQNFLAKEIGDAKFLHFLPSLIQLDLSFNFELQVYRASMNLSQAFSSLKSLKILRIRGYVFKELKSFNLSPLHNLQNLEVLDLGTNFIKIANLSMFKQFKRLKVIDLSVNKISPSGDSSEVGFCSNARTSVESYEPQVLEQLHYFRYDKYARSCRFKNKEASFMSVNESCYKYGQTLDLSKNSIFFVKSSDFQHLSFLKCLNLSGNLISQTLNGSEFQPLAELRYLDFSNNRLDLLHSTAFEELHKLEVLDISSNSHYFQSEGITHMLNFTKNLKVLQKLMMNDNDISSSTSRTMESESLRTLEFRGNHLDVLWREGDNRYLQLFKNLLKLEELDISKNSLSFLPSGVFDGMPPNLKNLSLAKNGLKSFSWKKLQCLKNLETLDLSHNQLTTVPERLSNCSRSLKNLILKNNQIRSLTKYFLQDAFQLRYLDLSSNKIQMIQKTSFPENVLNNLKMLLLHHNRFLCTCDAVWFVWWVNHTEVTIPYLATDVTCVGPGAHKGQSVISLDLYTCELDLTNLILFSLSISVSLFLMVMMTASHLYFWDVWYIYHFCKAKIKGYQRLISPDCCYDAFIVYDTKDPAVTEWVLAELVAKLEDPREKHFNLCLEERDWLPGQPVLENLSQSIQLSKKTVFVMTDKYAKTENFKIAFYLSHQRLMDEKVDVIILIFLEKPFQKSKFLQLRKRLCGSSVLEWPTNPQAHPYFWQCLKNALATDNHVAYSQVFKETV
Type: cell-based

**Q.** `C[C@H]1C[C@@H](NC(=O)[C@@H](O)C(C)(C)C)C[C@H](c2ccc(C(F)(F)F)c3nccnc23)C1` was tested. Which pIC50 did it give?
**A.** Its pIC50 is greater than 6.00.

**Q.** `C[C@@H]1C[C@H](c2ccc(C#N)c3ncccc23)CN(C(=O)CN2CCN(C)CC2)C1` was tested. Which pIC50 did it give?
**A.** The pIC50 was greater than 6.00.

**Q.** With `C[C@@H]1C[C@H](c2ccc(C(F)(F)F)c3ncccc23)CN(C(=O)NC2CC2)C1` as the compound, how does the pIC50 read?
**A.** The pIC50 was 4.70 to 6.00.

**Q.** How did the pIC50 turn out when `C[C@@H]1C[C@H](c2ccc(C#N)c3ncccc23)CN(C(=O)CC2C3CC2CN(C)C3)C1` (some centres not stated) was run?
**A.** The pIC50 was greater than 6.00.

**Q.** `C[C@@H]1C[C@@H](c2ccc(C#N)c3ncccc23)CN(C(=O)C[C@H]2[C@@H]3CNC[C@@H]32)C1` was tested. Which pIC50 did it give?
**A.** Its pIC50 is greater than 6.00.

**Q.** `C[C@@H]1C[C@H](N)C[C@@H](c2ccc(C(F)(F)F)c3nccnc23)C1` was tested. Which pIC50 did it give?
**A.** Its pIC50 is greater than 6.00.

**Q.** `CC1CC(c2ccc(C#N)c3ncccc23)CN(CC2CCN(C)C2)C1` (configuration not stated) was tested. Which pIC50 did it give?
**A.** The pIC50 was greater than 6.00.

**Q.** With `C[C@@H]1C[C@H](c2ccc(C#N)c3ncccc23)CN(C(=O)NC2CCN(C)CC2)C1` as the compound, how does the pIC50 read?
**A.** The pIC50 was greater than 6.00.

**Q.** How did the pIC50 turn out when `C[C@@H]1C[C@@H](c2ccc(C(F)(F)F)c3ncccc23)CN(C(=O)CCn2cccn2)C1` was run?
**A.** Its pIC50 is less than 4.70.

**Q.** `Cc1ccc([C@H]2C[C@@H](C)CN(C(=O)CC3CCN(C)CC3)C2)c2cccnc12` was tested. Which pIC50 did it give?
**A.** Its pIC50 is greater than 6.00.

**Q.** With `C[C@@H]1C[C@H](N)C[C@H](c2ccc(C(F)(F)F)c3nccnc23)C1` as the compound, how does the pIC50 read?
**A.** Its pIC50 is greater than 6.00.

**Q.** How did the pIC50 turn out when `C[C@@H]1C[C@H](c2ccc(C#N)c3ncccc23)CN(C(=O)CC2CCN(C)CC2)C1` was run?
**A.** The pIC50 was greater than 6.00.
